For one data set, the target named is Histone deacetylase 1 (Homo sapiens, UniProt Q13547). As to the kind of experiment: Inhibition of recombinant human His-tagged HDAC1 expressed in insect cells using Ac-Leu-Gly-Lys(Ac)-AMC as substrate measured after 30 mins by fluorescence assay.
In a further data set the target is Histone deacetylase 2 (Homo sapiens, UniProt Q92769). Description: Inhibition of human full-length C-terminal FLAG-tagged HDAC2 expressed in baculovirus infected Sf9 insect cells using Ac-Leu-Gly-Lys(Ac)-AMC as substrate measured after 30 mins by fluorescence assay. It is filed as cell-based.
For data set [1], the target named is Histone deacetylase 3/NCoR1 (Homo sapiens, UniProt O15379). As to the kind of experiment: Inhibition of recombinant human GST-fused HDAC3/NCOR1 (397 to 503 residues) expressed in baculovirus infected insect cells using Ac-Leu-Gly-Lys(Ac)-AMC as substrate measured after 30 mins by fluorescence assay.
The next data set deals with T1, Histone deacetylase 8 (Homo sapiens, UniProt Q9BY41).
T1 sequence (Q9BY41 whole entry): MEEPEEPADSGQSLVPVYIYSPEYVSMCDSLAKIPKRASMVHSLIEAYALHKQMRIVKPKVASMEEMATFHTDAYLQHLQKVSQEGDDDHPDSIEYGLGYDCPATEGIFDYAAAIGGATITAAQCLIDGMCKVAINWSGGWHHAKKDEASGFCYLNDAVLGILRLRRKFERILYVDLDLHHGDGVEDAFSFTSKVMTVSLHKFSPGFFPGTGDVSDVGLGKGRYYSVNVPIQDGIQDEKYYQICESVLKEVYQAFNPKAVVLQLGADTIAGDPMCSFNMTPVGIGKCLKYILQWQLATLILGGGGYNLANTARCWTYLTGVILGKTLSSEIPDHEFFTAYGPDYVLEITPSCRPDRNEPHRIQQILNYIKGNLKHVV
As to the kind of experiment: Inhibition of recombinant human full-length C-terminal His-tagged HDAC8 expressed in baculovirus infected Sf9 insect cells using Ac-Leu-Gly-Lys(Tfa)-AMC as substrate measured after 30 mins by fluorescence assay.

The next data set addresses Histone deacetylase 4 (Homo sapiens, UniProt P56524). As to the kind of experiment: Inhibition of recombinant human N-terminal GST-tagged HDAC4 (627 to end residues) expressed in baculovirus infected Sf9 insect cells using AcLeu-Gly-Lys(Tfa)-AMC as substrate measured after 30 mins by fluorescence assay.
The target in the next data set is Histone deacetylase 5 (Homo sapiens, UniProt Q9UQL6). Description: Inhibition of recombinant human full-length N-terminal GST-tagged HDAC5 expressed in baculovirus infected Sf9 insect cells using AcLeu-Gly-Lys(Tfa)-AMC as substrate measured after 30 mins by fluorescence assay.
The next data set concerns the target T2, Histone deacetylase 7 (Homo sapiens, UniProt Q8WUI4).
T2 sequence (Q8WUI4 whole entry): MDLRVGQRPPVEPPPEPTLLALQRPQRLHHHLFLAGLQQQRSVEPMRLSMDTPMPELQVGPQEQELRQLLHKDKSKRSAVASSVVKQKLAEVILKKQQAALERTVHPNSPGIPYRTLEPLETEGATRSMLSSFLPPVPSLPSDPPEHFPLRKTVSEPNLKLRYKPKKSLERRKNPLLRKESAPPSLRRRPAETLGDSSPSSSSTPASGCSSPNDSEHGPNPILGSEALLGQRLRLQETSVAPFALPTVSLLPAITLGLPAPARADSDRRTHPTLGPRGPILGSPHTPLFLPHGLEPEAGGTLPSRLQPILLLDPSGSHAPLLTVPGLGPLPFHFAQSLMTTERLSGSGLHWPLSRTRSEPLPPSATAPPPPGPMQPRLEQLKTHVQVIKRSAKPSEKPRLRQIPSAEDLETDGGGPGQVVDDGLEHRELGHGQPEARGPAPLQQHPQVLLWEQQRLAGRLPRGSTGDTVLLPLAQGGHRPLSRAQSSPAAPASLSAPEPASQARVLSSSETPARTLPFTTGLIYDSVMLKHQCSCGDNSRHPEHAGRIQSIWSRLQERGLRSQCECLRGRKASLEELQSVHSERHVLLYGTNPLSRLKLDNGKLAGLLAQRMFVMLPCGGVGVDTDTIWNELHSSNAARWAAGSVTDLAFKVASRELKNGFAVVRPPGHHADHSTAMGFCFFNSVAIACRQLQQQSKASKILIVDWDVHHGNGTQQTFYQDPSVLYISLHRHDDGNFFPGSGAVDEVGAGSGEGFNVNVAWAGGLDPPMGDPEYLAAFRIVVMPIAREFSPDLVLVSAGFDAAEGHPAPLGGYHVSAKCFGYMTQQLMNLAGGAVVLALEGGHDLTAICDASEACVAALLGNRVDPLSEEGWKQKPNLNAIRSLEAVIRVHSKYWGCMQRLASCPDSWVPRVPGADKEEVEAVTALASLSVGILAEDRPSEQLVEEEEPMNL
Description: Inhibition of HDAC7 (unknown origin) using AcLeu-Gly-Lys(Tfa)-AMC as substrate measured after 30 mins by fluorescence assay.

A further data set has as its target Histone deacetylase 9 (Homo sapiens, UniProt Q9UKV0). As to the kind of experiment: Inhibition of recombinant human full-length N-terminal GST-tagged HDAC9 (1 to 1069 residues) expressed in wheat germ expression system using Ac-Leu-Gly-Lys(Tfa)-AMC as substrate measured after 30 mins by fluorescence assay.
The next data set has as its target T3, Histone deacetylase 11 (Homo sapiens, UniProt Q96DB2).
T3 sequence (Q96DB2 whole entry): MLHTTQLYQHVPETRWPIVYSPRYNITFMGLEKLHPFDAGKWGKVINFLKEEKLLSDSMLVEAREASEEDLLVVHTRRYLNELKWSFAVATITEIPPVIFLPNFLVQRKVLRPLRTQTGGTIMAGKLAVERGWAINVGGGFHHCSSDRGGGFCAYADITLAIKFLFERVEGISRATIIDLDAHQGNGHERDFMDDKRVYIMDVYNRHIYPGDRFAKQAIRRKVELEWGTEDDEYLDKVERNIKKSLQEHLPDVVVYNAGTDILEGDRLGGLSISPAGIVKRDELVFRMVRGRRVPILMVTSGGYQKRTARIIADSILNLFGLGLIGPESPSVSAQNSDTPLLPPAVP
As to the kind of experiment: Inhibition of recombinant human N-terminal His-tagged HDAC11 expressed in baculovirus infected Sf9 insect cells using Ac-Arg-His-Lys(Ac)-Lys(Ac)-AMC as substrate measured after 30 mins by fluorescence assay.

Data set [2] can be described thus: Half life in Beagle dog at 20 mg/kg, po by LC-MS/MS analysis. The note with it: in vivo. It is filed as ADME, organism-based, Canis lupus familiaris.
A short description of data set [3]: Tmax in Beagle dog at 20 mg/kg, po by LC-MS/MS analysis. The class given is ADME, organism-based, Canis lupus familiaris. The note with it: in vivo.
Data set [4] is described as follows: Cmax in Beagle dog at 20 mg/kg, po by LC-MS/MS analysis. It is filed as ADME, organism-based, Canis lupus familiaris. On the set-up: route oral, dose 20 mg/kg. The note with it: in vivo.
Data set [5] is described as follows: AUC (0 to t) in Beagle dog at 20 mg/kg, po by LC-MS/MS analysis. The arrangement: dose 20 mg/kg. It is filed as ADME, organism-based, Canis lupus familiaris. The note with it: in vivo.
A short description of data set [6]: AUC (0 to infinity) in Beagle dog at 20 mg/kg, po by LC-MS/MS analysis. The class given is ADME, organism-based, Canis lupus familiaris. The note with it: in vivo. The arrangement: route oral, time infinity, dose 20 mg/kg.
For a further data set, the system named is MDA-MB-231. Description: Antimetastatic activity against CM-Dil labeled human MDA-MB-231 cells xenografted in Zebrafish AB assessed as reduction in tail metastasis at 2.5 ug/ml measured after 5 days by fluorescence microscopic analysis. The class given is functional, cell-based. The note with it: dose 2.5 µg/ml, time 5.0 day. In general terms: Xenograft models place foreign cells or tissue in a host animal.

Broadly, the IC50 is the concentration that inhibits the measured activity by half. Broadly, the Tmax is the time from dosing to the highest level. Usually Cmax stands for the peak of the concentration-time curve. For orientation: AUC(0-t) means the area under the concentration-time curve up to a stated or last time point. Read a low AUC(0-t) as low exposure. Broadly, the AUC is concentration integrated over time.

Calls of active or inactive are those of the source. No cut-off for these calls is given here. Some results are limits rather than exact numbers.

Histone deacetylase 5, sequence (Q9UQL6 whole entry): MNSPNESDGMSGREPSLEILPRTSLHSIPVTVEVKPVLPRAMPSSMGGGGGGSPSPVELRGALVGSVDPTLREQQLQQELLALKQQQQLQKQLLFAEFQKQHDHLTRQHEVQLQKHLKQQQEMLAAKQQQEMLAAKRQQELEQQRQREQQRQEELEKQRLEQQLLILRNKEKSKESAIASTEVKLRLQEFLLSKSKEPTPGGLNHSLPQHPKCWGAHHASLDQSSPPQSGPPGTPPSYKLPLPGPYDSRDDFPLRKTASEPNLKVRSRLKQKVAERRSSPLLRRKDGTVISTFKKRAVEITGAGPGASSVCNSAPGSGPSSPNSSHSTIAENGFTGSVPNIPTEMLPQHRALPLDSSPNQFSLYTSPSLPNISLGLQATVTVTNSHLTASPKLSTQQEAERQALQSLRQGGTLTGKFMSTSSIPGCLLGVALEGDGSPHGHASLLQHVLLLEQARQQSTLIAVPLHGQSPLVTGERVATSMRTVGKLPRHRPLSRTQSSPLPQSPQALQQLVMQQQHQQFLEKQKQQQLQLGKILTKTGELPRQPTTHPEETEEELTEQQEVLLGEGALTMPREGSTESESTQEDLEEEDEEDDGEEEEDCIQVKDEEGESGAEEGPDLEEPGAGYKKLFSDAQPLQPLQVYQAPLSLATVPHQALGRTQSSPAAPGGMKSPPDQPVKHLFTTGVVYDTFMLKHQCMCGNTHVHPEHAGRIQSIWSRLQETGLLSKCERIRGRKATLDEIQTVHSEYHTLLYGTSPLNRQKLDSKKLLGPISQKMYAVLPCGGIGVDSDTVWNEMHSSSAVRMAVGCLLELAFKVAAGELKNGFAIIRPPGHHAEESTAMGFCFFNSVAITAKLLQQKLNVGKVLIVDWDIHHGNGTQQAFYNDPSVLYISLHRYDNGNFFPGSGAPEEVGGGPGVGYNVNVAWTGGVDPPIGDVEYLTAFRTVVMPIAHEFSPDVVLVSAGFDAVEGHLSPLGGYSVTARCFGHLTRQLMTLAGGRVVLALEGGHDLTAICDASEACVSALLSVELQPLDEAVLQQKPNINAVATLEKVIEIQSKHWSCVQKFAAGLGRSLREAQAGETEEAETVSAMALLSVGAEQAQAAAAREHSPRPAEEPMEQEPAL
Histone deacetylase 3/NCoR1, sequence (O15379 whole entry, the tested form may be a part): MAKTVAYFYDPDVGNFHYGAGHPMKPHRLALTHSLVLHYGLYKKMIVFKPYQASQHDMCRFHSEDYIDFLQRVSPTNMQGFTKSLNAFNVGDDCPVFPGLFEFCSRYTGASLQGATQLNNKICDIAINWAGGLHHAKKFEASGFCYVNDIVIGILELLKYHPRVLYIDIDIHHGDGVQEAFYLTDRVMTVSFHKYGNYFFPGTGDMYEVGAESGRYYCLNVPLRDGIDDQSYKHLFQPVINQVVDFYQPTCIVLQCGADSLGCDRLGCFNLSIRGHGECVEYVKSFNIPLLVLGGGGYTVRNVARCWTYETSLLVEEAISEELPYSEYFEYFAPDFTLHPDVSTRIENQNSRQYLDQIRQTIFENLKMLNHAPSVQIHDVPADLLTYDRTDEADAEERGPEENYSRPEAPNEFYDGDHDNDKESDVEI
Histone deacetylase 3/NCoR1, sequence (O75376 whole entry, further chain, the tested form may be a part): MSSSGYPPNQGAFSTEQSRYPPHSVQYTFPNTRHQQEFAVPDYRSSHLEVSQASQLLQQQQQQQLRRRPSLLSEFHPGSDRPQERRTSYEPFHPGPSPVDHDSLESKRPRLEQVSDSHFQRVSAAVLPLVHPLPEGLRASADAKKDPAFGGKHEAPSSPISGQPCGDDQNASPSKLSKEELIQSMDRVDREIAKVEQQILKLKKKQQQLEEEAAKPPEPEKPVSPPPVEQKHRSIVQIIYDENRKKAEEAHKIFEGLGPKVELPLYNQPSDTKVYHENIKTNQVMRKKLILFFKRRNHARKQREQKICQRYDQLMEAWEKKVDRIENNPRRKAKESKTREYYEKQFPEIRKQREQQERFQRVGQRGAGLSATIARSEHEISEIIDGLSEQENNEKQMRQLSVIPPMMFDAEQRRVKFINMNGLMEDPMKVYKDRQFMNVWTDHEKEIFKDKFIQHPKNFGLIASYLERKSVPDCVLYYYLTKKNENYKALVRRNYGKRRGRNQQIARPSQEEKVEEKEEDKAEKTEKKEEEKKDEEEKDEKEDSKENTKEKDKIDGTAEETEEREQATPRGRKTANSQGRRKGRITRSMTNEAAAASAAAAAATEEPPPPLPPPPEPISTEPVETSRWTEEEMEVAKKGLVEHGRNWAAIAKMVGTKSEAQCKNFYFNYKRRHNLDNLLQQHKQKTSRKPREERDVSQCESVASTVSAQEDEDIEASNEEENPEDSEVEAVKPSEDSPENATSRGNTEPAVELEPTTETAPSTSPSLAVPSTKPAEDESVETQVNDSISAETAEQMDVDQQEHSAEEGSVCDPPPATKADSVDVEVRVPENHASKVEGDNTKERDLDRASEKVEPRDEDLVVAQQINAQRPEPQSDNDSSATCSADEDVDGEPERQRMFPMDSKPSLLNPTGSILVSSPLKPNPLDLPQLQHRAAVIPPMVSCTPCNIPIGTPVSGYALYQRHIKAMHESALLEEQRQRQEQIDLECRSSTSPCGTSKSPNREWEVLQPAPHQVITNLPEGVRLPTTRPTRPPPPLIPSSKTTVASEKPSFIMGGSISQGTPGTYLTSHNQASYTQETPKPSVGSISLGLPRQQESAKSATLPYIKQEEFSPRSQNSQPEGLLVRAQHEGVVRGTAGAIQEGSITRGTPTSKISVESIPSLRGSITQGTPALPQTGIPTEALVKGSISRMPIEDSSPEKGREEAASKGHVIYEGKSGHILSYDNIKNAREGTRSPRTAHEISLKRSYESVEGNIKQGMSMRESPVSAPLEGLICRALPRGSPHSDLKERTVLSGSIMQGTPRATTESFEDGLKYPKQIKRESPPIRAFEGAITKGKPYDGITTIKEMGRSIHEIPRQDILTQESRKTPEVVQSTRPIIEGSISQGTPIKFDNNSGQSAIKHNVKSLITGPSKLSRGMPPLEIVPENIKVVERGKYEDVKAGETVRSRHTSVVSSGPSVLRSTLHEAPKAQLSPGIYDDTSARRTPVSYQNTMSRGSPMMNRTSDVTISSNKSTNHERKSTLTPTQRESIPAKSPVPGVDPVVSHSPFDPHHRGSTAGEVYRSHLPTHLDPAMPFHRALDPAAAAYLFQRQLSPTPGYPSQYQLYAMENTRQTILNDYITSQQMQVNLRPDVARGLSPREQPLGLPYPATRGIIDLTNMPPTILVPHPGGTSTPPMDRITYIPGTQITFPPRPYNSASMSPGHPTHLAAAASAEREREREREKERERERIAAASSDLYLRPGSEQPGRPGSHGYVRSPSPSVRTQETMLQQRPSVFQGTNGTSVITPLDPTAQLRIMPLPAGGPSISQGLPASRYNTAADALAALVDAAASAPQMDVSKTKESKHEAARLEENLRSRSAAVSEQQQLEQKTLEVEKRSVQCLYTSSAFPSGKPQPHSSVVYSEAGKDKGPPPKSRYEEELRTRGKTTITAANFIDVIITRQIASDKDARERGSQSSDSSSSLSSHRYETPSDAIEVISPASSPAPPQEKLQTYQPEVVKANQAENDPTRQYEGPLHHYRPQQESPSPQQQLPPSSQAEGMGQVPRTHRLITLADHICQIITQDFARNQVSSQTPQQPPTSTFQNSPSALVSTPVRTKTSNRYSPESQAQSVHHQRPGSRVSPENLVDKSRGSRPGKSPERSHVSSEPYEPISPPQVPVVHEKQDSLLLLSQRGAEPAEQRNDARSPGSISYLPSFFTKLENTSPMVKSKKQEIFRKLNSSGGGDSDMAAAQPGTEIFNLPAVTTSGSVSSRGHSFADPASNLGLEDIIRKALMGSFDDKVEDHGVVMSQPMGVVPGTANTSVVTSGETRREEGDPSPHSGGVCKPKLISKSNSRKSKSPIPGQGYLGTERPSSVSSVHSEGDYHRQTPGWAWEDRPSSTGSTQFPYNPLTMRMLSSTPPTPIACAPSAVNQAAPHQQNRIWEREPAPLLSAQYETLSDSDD
Histone deacetylase 9, sequence (Q9UKV0 whole entry, the tested form may be a part): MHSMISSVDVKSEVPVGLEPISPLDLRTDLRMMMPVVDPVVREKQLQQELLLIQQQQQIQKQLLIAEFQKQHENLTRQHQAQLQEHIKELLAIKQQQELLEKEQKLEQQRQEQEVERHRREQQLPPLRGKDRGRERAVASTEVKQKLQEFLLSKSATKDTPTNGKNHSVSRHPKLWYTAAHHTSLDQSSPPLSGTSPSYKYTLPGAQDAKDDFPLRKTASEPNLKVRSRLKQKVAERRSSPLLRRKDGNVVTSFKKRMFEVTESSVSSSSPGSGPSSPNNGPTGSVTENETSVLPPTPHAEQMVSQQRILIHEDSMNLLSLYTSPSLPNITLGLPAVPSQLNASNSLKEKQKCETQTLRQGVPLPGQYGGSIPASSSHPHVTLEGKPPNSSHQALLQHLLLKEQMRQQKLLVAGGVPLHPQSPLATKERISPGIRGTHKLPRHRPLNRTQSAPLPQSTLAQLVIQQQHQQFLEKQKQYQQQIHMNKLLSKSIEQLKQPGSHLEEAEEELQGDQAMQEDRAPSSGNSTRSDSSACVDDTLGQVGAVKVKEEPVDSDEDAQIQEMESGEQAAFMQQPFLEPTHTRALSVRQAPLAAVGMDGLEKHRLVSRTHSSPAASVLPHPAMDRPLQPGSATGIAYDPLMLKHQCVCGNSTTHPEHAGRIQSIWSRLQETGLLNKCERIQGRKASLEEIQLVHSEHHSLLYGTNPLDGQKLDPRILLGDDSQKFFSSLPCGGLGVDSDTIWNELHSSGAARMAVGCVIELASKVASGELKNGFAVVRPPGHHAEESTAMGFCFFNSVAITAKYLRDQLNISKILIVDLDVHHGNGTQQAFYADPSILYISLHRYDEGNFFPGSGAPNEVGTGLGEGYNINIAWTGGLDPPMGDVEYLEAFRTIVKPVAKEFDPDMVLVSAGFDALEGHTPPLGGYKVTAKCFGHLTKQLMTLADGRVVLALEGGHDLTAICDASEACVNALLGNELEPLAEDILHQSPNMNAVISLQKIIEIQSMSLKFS

As for `COc1cc(OC)c2c(N3CCN(C)CC3)nc(-c3cc(C)c(OCCCCCC(=O)NO)c(C)c3)nc2c1`, the IC50 at Histone deacetylase 1 is 86.9 nM; against Histone deacetylase 2, 97.3 nM; in data set [1], 79.2 nM; on Histone deacetylase 8 it was 378 nM; at Histone deacetylase 4, more than 1000 nM; on Histone deacetylase 5, more than 1000 nM. The IC50 at Histone deacetylase 7, at Histone deacetylase 9 and on Histone deacetylase 11 was more than 1000 nM each time. In [2], this compound showed a t1/2 of 74.4 min. For the same compound, the Tmax in [3] was 47.4 min. Moreover, the Cmax in data set [4] is 120.36 ng/mL. In [5], the exposure AUC(0-t) worked out at 1280 ng·h/mL. Besides, the AUC in data set [6] worked out at 1289.4 ng·h/mL.

In data set [2], `O=C(CCCCCCC(=O)Nc1ccccc1)NO` [VORINOSTAT] registered a t1/2 of 19.2 min. The time to peak (Tmax) in [3] is 9 min. The highest concentration (Cmax) in data set [4] is 118.93 ng/mL. The compound further gave an AUC(0-t) in [5] of 965 ng·h/mL. Further, the area under the curve (AUC) in [6] was 968.32 ng·h/mL. In addition, in the data set on MDA-MB-231, the result was Active.

(Values after ChEMBL document CHEMBL4765420, “Design, synthesis and biological evaluation of novel HDAC inhibitors with improved pharmacokinetic profile in breast cancer” (Eur J Med Chem, 2020).)
